Read-outs that look alike come from different tables or passages of the source.
How the values were obtained:
K562 (Leukemia) cells = experiment: Cell cycle distribution by flow cytometry; format: cell-based
In short: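 Compound-treated K562 cells analysed for cell-cycle distribution by flow cytometry; values given as % of cells.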

OVCAR-8 = experiment: SRB anticancer assay, ovarian; format: cell-based, human; design: Log10GI50: unit not given here
[1] = system: MCF-7 (Breast carcinoma) cells; experiment: Cell cycle distribution by flow cytometry (FACS); format: cell-based; conditions: MCF-7 cells, 2 μM, 24h
In short: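 MCF-7 cells treated with compound at 2 μM for 24h, DMSO (0.25%) as control. Cell cycle distribution read by flow cytometry.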

MCF7 = experiment: SRB anticancer assay, breast; format: cell-based, human; conditions: Homo sapiens, MCF7, 48 h
SNB-75 = experiment: SRB anticancer assay, CNS; format: cell-based, human; design: Log10GI50: unit not given here
[2] = system: Melanoma cancer cell lines; experiment: SRB anticancer assay, panel result; format: cell-based, human
Method: (§1) The compounds were evaluated for anticancer activity against sixty human cancer cells derived from nine cancer types (leukemia cell line, non-small-cell lung cell line, colon cell line, CNS cell line, melanoma cell line, ovarian cell line, prostate cell line, renal cancer cell line and breast cancer cell line) as shown in Table 1. For each compound, dose response curves for each cell line were measured at a minimum of five concentrations at 10 fold dilutions. A protocol of 48 h continuous drug exposure was used and a sulforhodamine B (SRB) protein assay was used to estimate cell viability or growth.

[3] = system: Ovarian cancer cell lines; experiment: SRB anticancer assay, panel result; format: cell-based, human
Method: as §1

Renal cancer cell lines = experiment: SRB anticancer assay, panel result; format: cell-based, human
Method: as §1

[4] = system: Non-small cell lung cancer cell lines; experiment: SRB anticancer assay, panel result; format: cell-based, human
Method: as §1

Breast cancer cell lines = experiment: SRB anticancer assay, panel result; format: cell-based, human
Method: as §1

CNS cancer cell lines = experiment: SRB anticancer assay, panel result; format: cell-based, human
Method: as §1

Colon cancer cell lines = experiment: SRB anticancer assay, panel result; format: cell-based, human
Method: as §1

[5] = system: Prostate cancer cell lines; experiment: SRB anticancer assay, panel result; format: cell-based, human
Method: as §1

[6] = system: Leukemia cancer cell lines; experiment: SRB anticancer assay, panel result; format: cell-based, human
Method: as §1

HOP-92 = experiment: SRB anticancer assay, non-small lung; format: cell-based, human; design: Log10GI50: unit not given here
SN12C = experiment: SRB anticancer assay, renal; format: cell-based, human; design: Log10GI50: unit not given here
HCT-116 = experiment: SRB anticancer assay, colon; format: cell-based, human; conditions: Homo sapiens, HCT-116, 48 h
NCI/ADR-RES = experiment: SRB anticancer assay, ovarian; format: cell-based, human; design: Log10GI50: unit not given here; conditions: for Log10GI50: present compounds
RXF 393 = experiment: SRB anticancer assay, renal; format: cell-based, human; design: Log10GI50: unit not given here
M14 = experiment: SRB anticancer assay, melanoma; format: cell-based, human; design: Log10GI50: unit not given here
OVCAR-4 = experiment: SRB anticancer assay, ovarian; format: cell-based, human; conditions: Homo sapiens, OVCAR-4, 48 h
SNB-19 = experiment: SRB anticancer assay, CNS; format: cell-based, human; design: Log10GI50: unit not given here

COc1cc2nc(-c3ccc(-n4cncc4-c4ccc(N)cc4)cc3)sc2c(OC)c1OC [Compound 7h, 4-(1-(4-(5,6,7-Trimethoxybenzo[d]thiazol-2-yl)phenyl)-1H-imidazol-5-yl)benzenamine]
cells in G2/M phase (K562 (Leukemia) cells): 16% | GI50 (OVCAR-8; Homo sapiens, OVCAR-8, 48 h): 4.23 µM | Log10GI50 (OVCAR-8; OVCAR-8, present compounds): −5.37 | cells in G2/M phase [1]: 23% | GI50 (MCF7): 3.02 µM | GI50 (SNB-75; Homo sapiens, SNB-75, 48 h): 5.94 µM | Log10GI50 (SNB-75; SNB-75, present compounds): −5.23 | LC50 ([2]; Homo sapiens, Melanoma panel, 50% net cell death, read-out: mean graph midpoint value (MG_MID) of Log10 LC50 (converted)): 97.7 µM | GI50 ([2]; Homo sapiens, Melanoma panel, read-out: mean graph midpoint value (MG_MID) of Log10 GI50 (converted)): 4.79 µM | GI50 ([2]; Homo sapiens, nine melanoma cancer cell lines, exposure at least 48 h, read-out: GI50, range over the panel): 0.71 to 6.4 µM | mean graph midpoint value (MG_MID) of log10 TGI ([2]; Melanoma panel, total inhibition of net cell growth): −4.13 | LC50 ([3]; Homo sapiens, Ovarian panel, 50% net cell death, read-out: mean graph midpoint value (MG_MID) of Log10 LC50 (converted)): 89.1 µM | GI50 ([3]; Homo sapiens, Ovarian panel, read-out: mean graph midpoint value (MG_MID) of Log10 GI50 (converted)): 5.01 µM | GI50 ([3]; Homo sapiens, seven ovarian cancer cell lines, exposure at least 48 h, read-out: GI50, range over the panel): 1.61 to 34.3 µM | mean graph midpoint value (MG_MID) of log10 TGI ([3]; Ovarian panel, total inhibition of net cell growth): −4.56 | CC50 (Renal cancer cell lines; Homo sapiens, Renal panel, 50% net cell death, read-out: mean graph midpoint value (MG_MID) of Log10 LC50 (converted)): 95.5 µM | GI50 (Renal cancer cell lines; Homo sapiens, Renal panel, read-out: mean graph midpoint value (MG_MID) of Log10 GI50 (converted)): 3.89 µM | GI50 (Renal cancer cell lines; Homo sapiens, eight renal cancer cell lines, exposure at least 48 h, read-out: GI50, range over the panel): 1.41 to 8.95 µM | mean graph midpoint value (MG_MID) of log10 TGI (Renal cancer cell lines; Renal panel, total inhibition of net cell growth): −4.38 | LC50 ([4]; Homo sapiens, Non-small cell lung panel, 50% net cell death, read-out: mean graph midpoint value (MG_MID) of Log10 LC50 (converted)): 93.3 µM | GI50 ([4]; Homo sapiens, Non-small cell lung panel, read-out: mean graph midpoint value (MG_MID) of Log10 GI50 (converted)): 2.57 µM | GI50 ([4]; Homo sapiens, nine Non-small cell lung cancer cell lines, exposure at least 48 h, read-out: GI50, range over the panel): 0.446 to 5.13 µM | mean graph midpoint value (MG_MID) of log10 TGI ([4]; Non-small cell lung panel, total inhibition of net cell growth): −4.54 | mean graph midpoint value (MG_MID) of log10 TGI (Breast cancer cell lines; Breast panel, total inhibition of net cell growth): −4.47 | CC50 (Breast cancer cell lines; Homo sapiens, Breast panel, 50% net cell death, read-out: mean graph midpoint value (MG_MID) of Log10 LC50 (converted)): > 100 µM | GI50 (Breast cancer cell lines; Homo sapiens, Breast panel, read-out: mean graph midpoint value (MG_MID) of Log10 GI50 (converted)): 2.82 µM | GI50 (Breast cancer cell lines; Homo sapiens, six breast cancer cell lines, exposure at least 48 h, read-out: GI50, range over the panel): 1.59 to 5.36 µM | mean graph midpoint value (MG_MID) of log10 TGI (CNS cancer cell lines; CNS panel, total inhibition of net cell growth): −4.51 | CC50 (CNS cancer cell lines; Homo sapiens, CNS panel, 50% net cell death, read-out: mean graph midpoint value (MG_MID) of Log10 LC50 (converted)): 66.1 µM | GI50 (CNS cancer cell lines; Homo sapiens, CNS panel, read-out: mean graph midpoint value (MG_MID) of Log10 GI50 (converted)): 5.75 µM | GI50 (CNS cancer cell lines; Homo sapiens, six CNS cancer cell lines, exposure at least 48 h, read-out: GI50, range over the panel): 1.53 to 12.3 µM | mean graph midpoint value (MG_MID) of log10 TGI (Colon cancer cell lines; Colon panel, total inhibition of net cell growth): >−4.0 | LC50 (Colon cancer cell lines; Homo sapiens, Colon panel, 50% net cell death, read-out: mean graph midpoint value (MG_MID) of Log10 LC50 (converted)): > 100 µM | GI50 (Colon cancer cell lines; Homo sapiens, Colon panel, read-out: mean graph midpoint value (MG_MID) of Log10 GI50 (converted)): 3.31 µM | GI50 (Colon cancer cell lines; Homo sapiens, seven colon cancer cell lines, exposure at least 48 h, read-out: GI50, range over the panel): 2.79 to 3.81 µM | LC50 ([5]; Homo sapiens, Prostate panel, 50% net cell death, read-out: mean graph midpoint value (MG_MID) of Log10 LC50 (converted)): > 100 µM | GI50 ([5]; Homo sapiens, Prostate panel, read-out: mean graph midpoint value (MG_MID) of Log10 GI50 (converted)): 4.68 µM | GI50 ([5]; Homo sapiens, two prostate cancer cell lines (PC-3, DU-145), exposure at least 48 h, read-out: GI50, range over the panel): 3.02 to 7.25 µM | mean graph midpoint value (MG_MID) of log10 TGI ([5]; Prostate panel, total inhibition of net cell growth): −4.15 | LC50 ([6]; Homo sapiens, Leukemia panel, 50% net cell death, read-out: mean graph midpoint value (MG_MID) of Log10 LC50 (converted)): > 100 µM | GI50 ([6]; Homo sapiens, Leukemia panel, read-out: mean graph midpoint value (MG_MID) of Log10 GI50 (converted)): 1.2 µM | GI50 ([6]; Homo sapiens, six leukemia cancer cell lines, exposure at least 48 h, read-out: GI50, range over the panel): 0.989 to 1.4 µM | mean graph midpoint value (MG_MID) of log10 TGI ([6]; Leukemia panel, total inhibition of net cell growth): >−4.0 | Log10GI50 (HOP-92; HOP-92, present compounds): −6.35 | GI50 (HOP-92; Homo sapiens, HOP-92, 48 h): 0.446 µM | GI50 (SN12C; Homo sapiens, 48 h): 8.95 µM | Log10GI50 (SN12C; present compounds): −5.05 | GI50 (HCT-116): 3.81 µM | GI50 (NCI/ADR-RES; Homo sapiens, NCI/ADR-RES, 48 h): 1.61 µM | Log10GI50 (NCI/ADR-RES; NCI/ADR-RES (row head NCI/ADR-)): −5.79 | Log10GI50 (NCI/ADR-RES; listed as head printed RES (second line of NCI/ADR-RES)): −4.93 | GI50 (RXF 393; Homo sapiens, RXF 393, 48 h): 4.41 µM | Log10GI50 (RXF 393; RXF 393, present compounds): −5.36 | GI50 (M14; Homo sapiens, M14, 48 h): 2.1 µM | Log10GI50 (M14; M14, present compounds): −5.68 | GI50 (OVCAR-4): 3.6 µM | GI50 (SNB-19; Homo sapiens, SNB-19, 48 h): 12.3 µM | Log10GI50 (SNB-19; SNB-19, present compounds): −4.91
